Data from patent US20140315754A1, “METHODS AND COMPOSITIONS FOR ASSESSING AND TREATING CANCER” (The Board of Regents of the University of Texas System, priority 2013, published 2014).

Key:
[1] = tested on: 5′ promoter of DCLK1 gene (L-DCLK1 expression); assay: RT-PCR expression of L/S DCLK1 in HCT-116 cells before or after 5-Aza-Cytidine; assay type: cell-based, human; conditions: FIG. 12B
Source text: FIG. 12 (A) Methylation of CpG sites in 5′-promoter of DCLK1-gene in cell lines/human samples; NC=normal colon; CRC=colorectal cancer. (B) Expression of L/S DCLK1 in HCT-116 cells before (−) or after (+) treatment with 5-Aza-Cytidine by RT-PCR.
Recent reports have confirmed DNA methylation of 5′ promoter of DCLK1 gene in CRCs (Vedeld et al. Epigenetics 2014, 9(3).30). Thus, DNA methylation of 5′ promoter leads to epigenetic silencing and loss of L expression in cancer cells/tumors.

COL3A1 promoter = assay: Promoter activity of COL3A1 constructs in HCT116 cells; assay type: cell-based, human; conditions: C-Luciferase reporter, FIG. 14
Source text: FIG. 14 HTS Bioassay: (A) RT-PCR analysis of COL3A1 in ShC and ShD clones (5′upstream nucleotide sequence of COL3A1 gene is provided in SEQ ID NO:10). (B) The map of the promoter constructs fused to secretable Cypridina Luciferase (C-Luciferase). (C) The flow diagram of the method used to measure the promoter activity of COL3A1 constructs in HCT116 cells. (D) The promoter activity of COL3A1 constructs in HCT116 cells.
The inventors developed bioassays for […] (HTS), using promoter-reporter constructs of genes identified as being down stream of DCLK1-S, but not DCLK1-L (FIG. 15). As an example of the bioassays developed, the inventors generated promoter-reporter constructs of COL3A1 gene in pCLuc-BASIC-2 vector, based on published sequence of the Col3A1 gene (FIG. 14A-14C) and transiently transfected ShC/ShD clones of HCT-116 cells, as per protocol shown in FIG. 14D. […] Data obtained from the HTS assays with the specific bioassays will help identify specific molecules from available chemical libraries, which will then allow the development of safe and effective drugs for inhibiting tumorigenic/metastatic potential of cancer stem cells, while sparing the functions of normal stem cells in intestinal crypts, as a non-toxic treatment strategy for colorectal/pancreatic cancers, and other cancers as well, which are found to be dependent on the expression of DCLK1-S.

[2] = tested on: DCLK1 positive cancer cells (CSCs); assay: In vitro relapse assay (spheroid re-growth from cancer stem cells); assay type: cell-based
Source text: In certain embodiments an expression vector can be used to provide an inhibitory RNA to a cell in vitro or in vivo. […] Thus accumulating evidence from literature and from our laboratory strongly supports a critical role of DCLK1 in cancer stem cell biology.

Compound	expression of L-DCLK1 [1]	promoter activity of COL3A1 constructs (COL3A1 promoter)	relapse/re-growth of spheroids [2]
Nc1ncn([C@@H]2O[C@H](CO)[C@@H](O)[C@H]2O)c(=O)n1 [5 aza cytidine]	re-expression of L-DCLK1		
shRNA: DCLK1 targeting shRNA; shrna sequence ATCGTTCTGTTATTGTAGC in pGZIP Lentiviral vector (ShD clones) (pGZIP lentiviral vector)		loss of promoter activity	eliminated relapse/re-growth of spheroids
COc1cc(/C=C/C(=O)CC(=O)/C=C/c2ccc(O)c(OC)c2)ccc1O [curcumin]			underwent autophagic survival and re-grew (relapse) as spheroids
